{"source": "patent US20090081249A1", "about": "(priority 2007, published 2009)", "tested_on": "B/Hong-Kong/36/05, mutant strain, resistant to zanamivir and oseltamivir", "format": "cell-based, influenza B"}
{"smiles": "CC(=O)N[C@H]1[C@H]([C@H](O)[C@H](O)CO)OC(C(=O)O)=C[C@@H]1N=C(N)N", "note": "[Zanamivir, zanamivir]", "values": [{"measurement": "IC50", "result": 210000, "unit": "nM"}]}
